Results: PubChem BioAssay AID198 (DTP/NCI, 2004)
Values joined by “and” are separate entries in the source; they are usually repeats but may differ in a detail not shown here. Identical values can stand only once. Toxic doses and inconclusive results are not listed.

Tested on: B16 melanoma ip, C57BL/6 mice, median survival T/C
Assay: NCI In Vivo Anticancer Drug Screen. Data for tumor model B16 Melanoma (intraperitoneal) in C57BL/6 mice
Settings: endpoint: median survival time, higher = longer survival
Procedure: The antitumor activity of compounds was measured in mice bearing transplantable tumors. Survival or tumor size were measured and the results are expressed as the measurement made in the treated group (T) divided by the measurement made in the vehicle treated control group (C). The tumor model used in this assay is B16 Melanoma (intraperitoneal) in C57BL/6 mice

[1] = dose: 10.0 mg/kg/injection, schedule: Q01DX009 (ip), vehicle: saline
[2] = dose: 20.0 mg/kg/injection, schedule: Q01DX009 (ip), vehicle: saline
[3] = dose: 100.0 mg/kg/injection, schedule: Q01DX009 (ip), vehicle: saline with Tween-80
[4] = dose: 200.0 mg/kg/injection, schedule: Q01DX009 (ip), vehicle: saline with Tween-80
[5] = dose: 400.0 mg/kg/injection, schedule: Q01DX009 (ip), vehicle: saline with Tween-80

With `COc1cc(NS(C)(=O)=O)ccc1Nc1c2ccccc2nc2ccccc12` the T/C (dose: 0.5 mg/kg/injection, schedule: Q01DX009 (ip), vehicle: water) was 160 % of control, the T/C (dose: 1.0 mg/kg/injection, schedule: Q01DX009 (ip), vehicle: Klucel (hydroxypropylcellulose) (HPC)) was 172 % of control and the T/C (dose: 2.0 mg/kg/injection, schedule: Q01DX009 (ip), vehicle: Klucel (hydroxypropylcellulose) (HPC)) was 179 % of control. The T/C (dose: 2.0 mg/kg/injection, schedule: Q01DX009 (ip), vehicle: water) was 222 % of control and the T/C (dose: 4.0 mg/kg/injection, schedule: Q01DX009 (ip), vehicle: water) was 246 % of control.

`COC(N)=O` was tested, and the T/C (dose: 62.5 mg/kg/injection, schedule: Q01DX009 (ip), vehicle: saline) was 100 % of control and 107 % of control, the T/C (dose: 125.0 mg/kg/injection, schedule: Q01DX009 (ip), vehicle: saline) was 103 % of control and 106 % of control and the T/C (dose: 250.0 mg/kg/injection, schedule: Q01DX009 (ip), vehicle: saline) was 100 % of control and 107 % of control. The T/C (dose: 500.0 mg/kg/injection, schedule: Q01DX009 (ip), vehicle: saline) was 110 % of control.

With `O=c1[nH]c(=O)n(C2CC(O)C(CO)O2)cc1F` (centres undefined) the T/C [1] was 113 % of control, the T/C [2] was 120 % of control and the T/C (dose: 40.0 mg/kg/injection, schedule: Q01DX009 (ip), vehicle: saline) was 123 % of control. For the same molecule, the T/C (dose: 80.0 mg/kg/injection, schedule: Q01DX009 (ip), vehicle: saline) was 154 % of control and the T/C (dose: 160.0 mg/kg/injection, schedule: Q01DX009 (ip), vehicle: saline) was 151 % of control.

`C/C(=C\COc1ccc2ccc(=O)oc2c1)C1=CC(=O)C(C)(C)O1` was tested, and the T/C [3] was 94 % of control, the T/C [4] was 100 % of control and the T/C [5] was 94 % of control.

In the case of `COc1ccc(-c2c(C)c(C(=O)O)nc(-c3ccc4c(O)c(OC)c5c(c4n3)=NC(C)(C)N=5)c2N)c(O)c1OC`, the T/C [1] is reported as 124 % of control and the T/C [2] is reported as 107 % of control.

With `O=C(O)CCCCSc1ncnc2nc[nH]c12` the T/C [3] was 110 % of control, the T/C [4] was 103 % of control and the T/C [5] was 114 % of control.

For `C1CN1c1nc(N2CC2)nc(N2CC2)n1`, the T/C (dose: 0.13 mg/kg/injection, schedule: Q01DX009 (ip), vehicle: saline) was 103 % of control and 116 % of control and 120 % of control, the T/C (dose: 0.25 mg/kg/injection, schedule: Q01DX009 (ip), vehicle: saline) was 109 % of control and 120 % of control and 122 % of control and the T/C (dose: 0.5 mg/kg/injection, schedule: Q01DX009 (ip), vehicle: saline) was 86 % of control. For the same molecule, the T/C (dose: 1.0 mg/kg/injection, schedule: Q01DX009 (ip), vehicle: saline) was 100 % of control.

`CCCC/C=C/CCCCCCCC(=O)OCCCCCCCCCCCCCCCC` was tested, and the T/C (dose: 400.0 mg/kg/injection, schedule: Q01DX001 (ip), vehicle: saline with Tween-80) was 86 % of control.

In the case of `CN(C)CCCN1c2ccc(O)cc2Sc2ccc(Cl)cc21`, the T/C (dose: 6.25 mg/kg/injection, schedule: Q01DX009 (ip), vehicle: saline) is reported as 109 % of control, the T/C (dose: 12.5 mg/kg/injection, schedule: Q01DX009 (ip), vehicle: saline) is reported as 115 % of control and the T/C (dose: 25.0 mg/kg/injection, schedule: Q01DX009 (ip), vehicle: saline) is reported as 103 % of control. For the same molecule, the T/C (dose: 50.0 mg/kg/injection, schedule: Q01DX009 (ip), vehicle: saline) was 103 % of control and 106 % of control and the T/C (dose: 100.0 mg/kg/injection, schedule: Q01DX009 (ip), vehicle: saline) was 100 % of control.

For `COC1=C(N)C(=O)c2nc(-c3nc(C(=O)O)c(C)c(-c4ccc(OC)c(OC)c4O)c3N)ccc2C1=O`, the T/C (dose: 0.03 mg/kg/injection, schedule: Q01DX009 (ip), vehicle: saline) was 103 % of control and the T/C (dose: 0.05 mg/kg/injection, schedule: Q01DX009 (ip), vehicle: saline) was 93 % of control and 100 % of control and 118 % of control.
